# In ChEMBL document CHEMBL1144358, “LEA3D: a computer-aided ligand design for structure-based drug design” (J Med Chem, 2005):
# Target: T1, Thymidylate kinase (Mycobacterium tuberculosis, UniProt P9WKE1)
# T1 sequence (P9WKE1 whole entry): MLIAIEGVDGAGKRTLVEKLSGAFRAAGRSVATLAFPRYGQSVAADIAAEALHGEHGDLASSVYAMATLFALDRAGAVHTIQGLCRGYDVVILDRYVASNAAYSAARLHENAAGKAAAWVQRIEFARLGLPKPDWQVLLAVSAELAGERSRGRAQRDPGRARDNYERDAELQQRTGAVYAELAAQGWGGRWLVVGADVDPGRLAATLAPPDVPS
# Experiment: Binding affinity towards mycobacterium tuberculosis thymidine monophosphate kinase; NI=No inhibition; call rule not given here
row,SMILES,Ki
1,Cc1cn(Cc2ccc(/C=C/C#N)cc2)c(=O)[nH]c1=O,Not Active
2,Cc1cn(Cc2ccc(/C=C/C(=O)O)cc2)c(=O)[nH]c1=O,Not Active
3,O=c1[nH]c(=O)n(Cc2ccccc2)cc1F,Not Active
4,Cc1cn(Cc2ccc(CCC#N)cc2)c(=O)[nH]c1=O,Not Active
5,CCOC(=O)/C=C/c1ccc(Cn2cc(C)c(=O)[nH]c2=O)cc1,Not Active

# Target: T1, Thymidylate kinase
# Experiment: Binding affinity towards mycobacterium tuberculosis thymidine monophosphate kinase
row,SMILES,Ki
1,O=C(O)CCCc1ccc(Cn2cc(Br)c(=O)[nH]c2=O)cc1,12.3 µM
